In patent publication US7964624B1, “Inhibitors of serine proteases” (priority 2005, dated 2011):
Where a SMILES comes first, the peptide text is derived from it. [ ]: non-standard residue; d: D form. Abu = CC[C@H](N)C(=O)O

Experiments:
Assay in all cases: Determination of Km and Vmax for peptide substrates
HCV NS3•4A = molecular target: T1, HCV NS3•4A (Hepatitis C virus genotype 1a, UniProt P27958); type: biochemical, HCV sub-type strain 1a; conditions: enzyme NS3•4A; peptide substrate varied 3-200 μM; Michaelis-Menten fit
T1 construct: hexa-histidine (N); made in house; host or cells: Sf9 insect cells (baculovirus, pVL1392)
Protocol: (§1) This assay follows the cleavage of a peptide substrate by full-length hepatitis C viral protein NS3•4A. One of three peptide substrates based on the NS5A/NS5B cleavage site for genotype 1a HCV is used to measure enzyme activity. All substrate stock solutions (25 mM) were prepared in DMSO containing 0.2M DTT and stored at −20° C. A synthetic peptide cofactor (NS4A Peptide) was used to supplement NS4A. Peptide sequences are shown below. The hydrolysis reaction was performed in a 96-well microtiter plate format using 100 ηM to 125 ηM HCV NS3•4A in buffer containing 50 mM HEPES pH 7.8, 100 mM NaCl, 20% glycerol, 5 mM DTT and 25 μM NS4A Peptide. The final DMSO concentration was no greater than 2% v/v. Reactions using NS5AB or NS5AB-EDANS as substrate were quenched by the addition of 10% trifluoroacetic acid (TFA) to yield a final TFA concentration of 2.5%. Reactions using FITC-NS5AB-1 as substrate were quenched by the addition of 0.4M formic acid to yield a final concentration of 0.08M acid.
(§2) Enzymatic activity was assessed by separation of substrate and products by reverse phase HPLC. The instrument used was a Agilent 1100 with a G1322A degasser, either a G1312A binary pump or a G1311A quaternary pump, a G1313A autosampler, a G1316A column thermostated chamber, a G1321A fluorescence detector and a G1315A diode array detector. The column thermostat was at 40° C. […] The C-terminal product peak (NH2-SMSY-COOH) was quantitated using the absorbance data collected at 210 ηm. […] The C-terminal product peak (NH2-SMSYT-Asp(EDANS)-KKK-COOH) was quantitated using the fluorescence data collected at 350 ηm excitation/490 ηm emission. […] The N-terminal product peak (FITC-Ahx-EDVV-(alpha)Abu-C—COOH) was quantitated using the fluorescence data collected at 440 nm excitation/520 nm emission. Alternatively, the ratio of N-terminal product to unreacted FITC-NS5AB-1 substrate was determined using a Caliper LabChip 3000 with detection at 488 nm excitation/530 nm emission, using a chip buffer of 100 mM Tris pH 7.0, 10 mM EDTA, 0.01% (v/v) Brij-35, and 0.1% (v/v) CR-3. […]

[1] = system: CC[C@H](NC(=O)[C@@H](NC(=O)[C@@H](NC(=O)[C@H](CC(=O)O)NC(=O)[C@@H](N)CCC(=O)O)C(C)C)C(C)C)C(=O)N[C@@H](CS)C(=O)N[C@@H](CO)C(=O)N[C@@H](CCSC)C(=O)N[C@@H](CO)C(=O)N[C@@H](Cc1ccc(O)cc1)C(=O)N[C@H](C(=O)N[C@@H](CC(=O)NCCNc1cccc2c(S(=O)(=O)O)cccc12)C(=O)N[C@@H](CCCCN)C(=O)N[C@@H](CCCCN)C(=O)N[C@@H](CCCCN)C(=O)O)[C@@H](C)O; type: biochemical, HCV sub-type strain 1a; conditions: other: enzyme NS3•4A; peptide substrate varied 3-200 μM; Michaelis-Menten fit; 40.0 °C
Protocol: as §1, §2

HCV NS3 protease domain = molecular target: T2, HCV NS3 protease domain (Hepatitis C virus genotype 1b, UniProt Q9WMX2); type: biochemical; conditions: enzyme NS3 protease domain; peptide substrate varied 3-200 μM; Michaelis-Menten fit
T2 construct: The first 181 amino acids of NS3 (residues 1027-1207 of the viral polyprotein); hexa-histidine (C); made in house; host or cells: E. coli BL21/DE3 pLysS
Protocol: This assay is a modification of that described by Landro, et al. (Landro J A, Raybuck S A, Luong Y C, O'Malley E T, Harbeson S L, Morgenstern K A, Rao G and Livingston D L. Biochemistry 1997, 36, 9340-9348), and uses a peptide substrate (NS5AB), based on the NS5A/NS5B cleavage site for genotype 1a HCV. The substrate stock solution (25 mM) was prepared in DMSO containing 0.2 M DTT and stored at −20° C. A synthetic peptide cofactor (KK4A) was used as a substitute for the central core region of NS4A. The reaction was performed in a 96-well microtiter plate format using 25 ηM to 50 ηM HCV NS3 protease domain in buffer containing 50 mM HEPES pH 7.8, 100 mM NaCl, 20% glycerol, 5 mM DTT and 25 μM KK4A. The final DMSO concentration was no greater than 2% v/v. […]
The SMSY product was separated from substrate and KK4A using a microbore separation method. […] The SMSY product peak was quantitated using the data collected at […].
To determine the kinetic parameters Km and Vmax, the HCV NS3 protease domain or HCV NS3•4A was reacted with peptide substrate under the assay conditions described above. […] The ratio of the product peak area (as determined by reverse phase HPLC) to the reaction time yielded a rate of enzyme catalyzed hydrolysis. […] The value of kcat was determined from Vmax using the nominal protease concentration and a fully cleaved substrate peptide as an instrument calibration standard.

Work on `CC[C@H](NC(=O)[C@@H](NC(=O)[C@@H](NC(=O)[C@H](CC(=O)O)NC(=O)[C@@H](N)CCC(=O)O)C(C)C)C(C)C)C(=O)N[C@@H](CS)C(=O)N[C@@H](CO)C(=O)N[C@@H](CCSC)C(=O)N[C@@H](CO)C(=O)N[C@@H](Cc1ccc(O)cc1)C(=O)O` [NS5AB, NH2-EDVV-(alpha)Abu-CSMSY-COOH] (H-EDVV[Abu]CSMSY-OH) yielded a Km (HCV NS3•4A) of 30 µM.

Work on “HCV NS3•4A (Hepatitis C virus (isolate H77))” yielded a Km [1] of 56 µM and a kcat/Km [1] of 1400 M⁻¹ s⁻¹.

`CC[C@H](NC(=O)[C@@H](NC(=O)[C@@H](NC(=O)[C@H](CC(=O)O)NC(=O)[C@@H](N)CCC(=O)O)C(C)C)C(C)C)C(=O)N[C@@H](CS)C(=O)N[C@@H](CO)C(=O)N[C@@H](CCSC)C(=O)N[C@@H](CO)C(=O)N[C@@H](Cc1ccc(O)cc1)C(=O)O` [DomainNS5AB] (H-EDVV[Abu]CSMSY-OH) showed a Km (HCV NS3 protease domain) of 25 µM.
